Literature values, collected in article PMC10608500 (Marine Drugs, 2023).
pIC50: −log10 of the molar value. Read-outs that look alike come from different tables or passages of the source.

Tests used:
[1] = system: U937 human histiocytic lymphoma cells; set-up: method as in PMID 34986303; settings: read-out: IC50 against U937 cells
[2] = system: CCRF-CEM human T lymphoblast cells; set-up: method as in PMID 34986303; settings: read-out: IC50 against CCRF-CEM cells
[3] = Table 1
[4] = from Oscillatoria sp., ref Li, T et al. 20
[5] = from Oscillatoria agardhii, ref Murakami, M et al. 21

Substance	pIC50 [1]	pIC50 [2]	Activities [3, 4]	Activities [3, 5]	other results
amantamide B	5.14	5.25	CXCR7 agonist, cytotoxic		
heptavalinamide A					Activities ([3]; from Symploca sp., ref Suo, R et. al. 19): cytotoxic
amantamide A	5.21	5.08	CXCR7 agonist, cytotoxic		
sepiatocin					Activities ([3]; from Sepia officinalis, ref Henry, J et al. 22): muscle contractile activity modulator (sepiatocin)
prenylagaramide B				no biological activity	
prenylagaramide A				no biological activity	
